Measured values as given in PubChem BioAssay AID1919004 (Molecular Pharmacology Branch, DTP, NCI, 2023).
“And” between values parts separate entries of the source, which are not always exact repeats. Equal entries are not always repeated. Blank lines part the entries; values can stand above or below the compound they belong to.

Test system: 883617-216-R-J1-PDC complex spheroids, growth, % test/control
Assay: Anticancer human tumor 883617-216-R-J1-PDC patient-derived bladder carcinoma cell line growth inhibition [AhR]
Details: for viability, T/C: stronger effect = lower value
Excerpt: Multicellular complex tumor spheroid response to aryl hydrocarbon receptor antagonists in combination with a variety of drugs and investigational agents in selected tumor cell lines
The current study was undertaken to assess response to aryl hydrocarbon receptor antagonists in combination with standard-of-care drugs and investigational agents in solid tumor complex spheroid models. Complex spheroids include a stromal component modeled by human endothelial cells (HUVEC) and fibroblasts modeled by human mesenchymal stem cells (MSCs). The concentration ranges selected for each drug and investigational agent were based upon clinically achievable concentrations if the clinical Cmax of the agent was known.
Compounds. The drugs and investigational agents: BAY 2416964 (NSC825713), GNF351 (NSC835774), CH-223191 (NSC835775), CPI-455 (NSC825282), aza-TdCyd (NSC777586), decitabine (NSC127716), belinostat (NSC758774), entinostat (NSC756642), pevonedistat (NSC761192), tazemetostat (NSC777109), talazoparib (NSC765396), olaparib (NSC753686), selinexor (NSC780203), nedisertib (M3814, NSC802822), bortezomib (NSC756655), venetoclax (NSC766270), doxorubicin (NSC123127), elimusertib (BAY189344, NSC800525), ceralasertib (AZD6738, NSC777638), TAK-243 (NSC785004), alisertib (NSC759677), etoposide (NSC141540), topotecan (NSC609699), eribulin (NSC707389), gemcitabine (NSC613327), carboplatin (NSC241240), cisplatin (NSC119875), and SN-38 (NSC673596) were obtained from the National Cancer Institute (NCI) Developmental Therapeutics Program Chemical Repository (32). The FDA-approved anticancer drug set is available from the Developmental Therapeutics Program at https://dtp.cancer.gov/organization/dscb/obtaining/available plates.htm. […] The stock solutions were prepared in dimethyl sulfoxide (DMSO, Sigma-Aldrich, St. Louis, MO, cat. D2650), except for the platinum compounds which were prepared in saline (Quality Biological, Gaithersburg, MD, cat. 114-055-101), at 800-fold the tested concentration and stored at -70 degrees C prior to their use. All drugs and investigational agents were tested over a range starting from a high concentration at or near the clinical Cmax and decreasing in half-log increments. If the clinical Cmax for an agent had not been determined, the highest concentration tested was 10 microM (Table 1).
Cell Culture. All cells were maintained in an incubator at 37 degrees C and 5% CO2 with 95% humidity. The PDC lines were cultured according to standard operating procedures established by the NCI PDMR (https://pdmr.cancer.gov). Briefly, all PDCs were thawed and cultured in Matrigel-coated flasks prepared with a working solution of 1X Ham's F-12 nutrient mix, without supplementation (Invitrogen, Waltham, MA, cat. 11765054), 100 U/mL penicillin-streptomycin (Invitrogen, cat. 15140122), and 2.5% Matrigel (Corning Inc., Corning, NY, cat. 354248) for the first three passages. All PDCs were cultured in complete DMEM/F-12 media containing advanced DMEM/F-12 (Invitrogen, cat. 12634028), 4.9% defined fetal bovine serum, heat inactivated (HyClone Laboratories Inc., Logan, UT, cat. SH30070.03HI), 389 ng/mL hydrocortisone (Sigma-Aldrich, cat. H4001), 9.7 ng/mL human EGF recombinant protein (Invitrogen, cat. PHG0313), 23.4 microg/mL adenine (Sigma-Aldrich, cat. A2786), 97.3 U/mL penicillin-streptomycin (Invitrogen, cat. 15140122), 1.9 mM L-glutamine (Invitrogen, cat. 25030081), and 9.7 microM Y-27632 dihydrochloride (Tocris Bioscience, Bristol, United Kingdom, cat. 1254). The PDCs were cultured in complete DMEM/F12 media without 10 microM Y-27632 dihydrochloride for at least two passages prior to the screen. The established cell lines NCI-H1341 and […] were cultured in DMEM/F-12, HEPES (Invitrogen, cat. 11330032), 5% defined fetal bovine serum (HyClone Laboratories Inc., cat. SH30070.03), ITS premix universal culture supplement [insulin (5 microg/mL), transferrin (5 microg/mL), and selenious acid (5 ng/mL)] […]

[1] = curve of first compound, second compound 0.1 µM
[2] = curve of first compound, second compound 0.316 µM
[3] = curve of first compound, second compound 1 µM
[4] = curve of first compound, second compound 3.16 µM
[5] = curve of first compound, second compound 10 µM
[6] = second compound 0.1 µM, first compound 0.00949 µM
[7] = second compound 0.1 µM, first compound 0.03 µM
[8] = second compound 0.1 µM, first compound 0.0949 µM
[9] = second compound 0.1 µM, first compound 0.3 µM
[10] = second compound 0.316 µM, first compound 0.00949 µM
[11] = second compound 0.316 µM, first compound 0.03 µM
[12] = second compound 0.316 µM, first compound 0.0949 µM
[13] = second compound 0.316 µM, first compound 0.3 µM
[14] = second compound 1 µM, first compound 0.00949 µM
[15] = second compound 1 µM, first compound 0.03 µM
[16] = second compound 1 µM, first compound 0.0949 µM
[17] = second compound 1 µM, first compound 0.3 µM
[18] = second compound 3.16 µM, first compound 0.00949 µM
[19] = second compound 3.16 µM, first compound 0.03 µM
[20] = second compound 3.16 µM, first compound 0.0949 µM
[21] = second compound 3.16 µM, first compound 0.3 µM
[22] = second compound 10 µM, first compound 0.00949 µM
[23] = second compound 10 µM, first compound 0.03 µM
[24] = second compound 10 µM, first compound 0.0949 µM
[25] = second compound 10 µM, first compound 0.3 µM
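Further: exposure lasted 7 days after dosing on day 3 of spheroid growth.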

SMILES: Nc1ncn(C2CC(O)C(CO)S2)c(=O)n1 (stereo unspecified) + CC(CO)NC(=O)c1cc(-c2ccc(Cl)cc2)nn(-c2cnn(C)c2)c1=O
IC50 [1]: > 0.3 µM
IC50 [2]: 0.288 µM
IC50 [3]: > 0.3 µM
IC50 [4]: > 0.3 µM
IC50 [5]: > 0.3 µM
viability, T/C (second compound 0.1 µM, first compound 0.000949 µM): 65.6%
viability, T/C (second compound 0.1 µM, first compound 0.003 µM): 57.9%
viability, T/C [6]: 65%
viability, T/C [7]: 76.6%
viability, T/C [8]: 80.2%
viability, T/C [9]: 85.5%
viability, T/C (second compound 0.316 µM, first compound 0.000949 µM): 72.1%
viability, T/C (second compound 0.316 µM, first compound 0.003 µM): 112%
viability, T/C [10]: 70.8%
viability, T/C [11]: 104%
viability, T/C [12]: 65.7%
viability, T/C [13]: 49.2%
viability, T/C (second compound 1 µM, first compound 0.000949 µM): 69.9%
viability, T/C (second compound 1 µM, first compound 0.003 µM): 66.6%
viability, T/C [14]: 78.5%
viability, T/C [15]: 118%
viability, T/C [16]: 43.9%
viability, T/C [17]: 89.8%
viability, T/C (second compound 3.16 µM, first compound 0.000949 µM): 71%
viability, T/C (second compound 3.16 µM, first compound 0.003 µM): 80.3%
viability, T/C [18]: 75.6%
viability, T/C [19]: 76%
viability, T/C [20]: 72.2%
viability, T/C [21]: 92.9%
viability, T/C (second compound 10 µM, first compound 0.000949 µM): 67.4%
viability, T/C (second compound 10 µM, first compound 0.003 µM): 74.7%
viability, T/C [22]: 76.2%
viability, T/C [23]: 71.9%
viability, T/C [24]: 102%
viability, T/C [25]: 111%

SMILES: CC(C)c1c(-c2ccccc2)nc2c(C#N)c[nH]n2c1=O
viability, T/C (compound 0.0316 µM): 101% and 93.4% and 95%
viability, T/C (compound 0.1 µM): 107% and 97.3% and 110%
viability, T/C (compound 0.316 µM): 109% and 96% and 82.6%
viability, T/C (compound 1 µM): 98.6% and 98% and 68.8%
viability, T/C (compound 3.16 µM): 110% and 100% and 82.2%
viability, T/C (compound 10 µM): 105% and 102% and 77.7%
IC50 (curve of compound): > 10 µM

Continued, in another order:

IC50 [1]: > 3 µM
IC50 [2]: > 3 µM
IC50 [3]: > 3 µM
IC50 [4]: > 3 µM
IC50 [5]: > 3 µM
SMILES: CCN(c1cc(-c2ccc(CN3CCOCC3)cc2)cc(C(=O)NCc2c(C)cc(C)[nH]c2=O)c1C)C1CCOCC1 + Cc1ccccc1N=Nc1ccc(NC(=O)c2ccnn2C)c(C)c1
viability, T/C [6]: 88.3%
viability, T/C [7]: 100%
viability, T/C [8]: 88.5%
viability, T/C [9]: 91.7%
viability, T/C (second compound 0.1 µM, first compound 0.949 µM): 80.3%
viability, T/C (second compound 0.1 µM, first compound 3 µM): 84.3%
viability, T/C [10]: 83.3%
viability, T/C [11]: 91.5%
viability, T/C [12]: 86.4%
viability, T/C [13]: 85.3%
viability, T/C (second compound 0.316 µM, first compound 0.949 µM): 88.3%
viability, T/C (second compound 0.316 µM, first compound 3 µM): 86.1%
viability, T/C [14]: 80.7%
viability, T/C [15]: 82.2%
viability, T/C [16]: 84%
viability, T/C [17]: 78.3%
viability, T/C (second compound 1 µM, first compound 0.949 µM): 82.8%
viability, T/C (second compound 1 µM, first compound 3 µM): 96.4%
viability, T/C [18]: 75.8%
viability, T/C [19]: 84.5%
viability, T/C [20]: 83.4%
viability, T/C [21]: 85.5%
viability, T/C (second compound 3.16 µM, first compound 0.949 µM): 88.4%
viability, T/C (second compound 3.16 µM, first compound 3 µM): 79.2%
viability, T/C [22]: 80%
viability, T/C [23]: 86.1%
viability, T/C [24]: 75.6%
viability, T/C [25]: 75.2%
viability, T/C (second compound 10 µM, first compound 0.949 µM): 77.6%
viability, T/C (second compound 10 µM, first compound 3 µM): 81.4%

IC50 (curve of compound): > 10 µM
SMILES: O=C(c1cc(Cc2n[nH]c(=O)c3ccccc23)ccc1F)N1CCN(C(=O)C2CC2)CC1
viability, T/C (compound 0.0316 µM): 101% and 100% and 93%
viability, T/C (compound 0.1 µM): 89.1% and 106% and 100%
viability, T/C (compound 0.316 µM): 95.9% and 94.9% and 112%
viability, T/C (compound 1 µM): 85.9% and 97.1% and 102%
viability, T/C (compound 3.16 µM): 88% and 93.1% and 105%
viability, T/C (compound 10 µM): 70.5% and 76.4% and 105%

IC50 (curve of compound): > 1 µM
SMILES: CC1COCCN1c1cc(-c2ccnn2C)c2ccnc(-c3ccn[nH]3)c2n1 (stereo unspecified)
viability, T/C (compound 0.00316 µM): 104% and 105% and 107%
viability, T/C (compound 0.01 µM): 97.6% and 103% and 86.6%
viability, T/C (compound 0.0316 µM): 100% and 93.5% and 68%
viability, T/C (compound 0.1 µM): 72.3% and 75.9% and 62.1%
viability, T/C (compound 0.316 µM): 65.9% and 55.5% and 80.2%
viability, T/C (compound 1 µM): 51% and 51.4% and 54.9%
